In patent publication US20090047221A1 (NIPRI LIMITED, priority 2004, published 2009):
Read-outs that look alike come from different tables or passages of the source.

Key:
Format in all cases: cell-based
[1] = system: SkMel28; experiment: MTT assay (anti-proliferative activity); conditions: read-out: IC 50 SkMel28
Description: (§1) The MTT assay was used initially to determine the anti-proliferative activity of the test compounds. In the MTT assay a yellow thiazolyl blue tetrazolium bromide salt (MTT) is reduced, in metabolically active cells, to form insoluble purple formazan crystals which are solubilised by the addition of dimethyl sulphoxide (DMSO).
(§2) Wells containing medium only were used as blanks. Following the attachment period, cells were treated with appropriate drug concentrations (20 μl added per well). 40 mg/ml stock drug solutions, in DMSO, were stored at −20° C. and on the day of drug treatment working solutions of 4 mg/ml were prepared in medium which was further diluted to achieve final drug dilution volumes of 20 μl. Initial screening was determined over a concentration range of 1-200 μg/ml. […] Cells were exposed to drug for 96 h continual exposure (37° C., 5% CO2). Following the 96 h incubation, 50 μl MTT solution (1 g MTT/500 ml PBS) was added per well and the plates were further incubated for 4 h (37° C., 5% CO2). After incubation the MTT and medium was removed from the wells and 100 μl DMSO added per well. Plates were agitated on an orbital mixer platform (Stuart Scientific) for 10 minutes. Absorbance was measured at 570 nm on a Biotrak II (Amersham Bioscience) plate reader. IC50 values were calculated comparing control and drug treated cells.

[2] = system: MCF-7; experiment: MTT assay (anti-proliferative activity); conditions: read-out: IC 50 MCF-7
Description: as §1, §2

[3] = system: MalMe3M; experiment: MTT assay (anti-proliferative activity); conditions: 96 h continual exposure, read-out: IC 50 MalMe3M
Description: as §1, §2

[4] = system: MDA-MB-468; experiment: MTT assay (anti-proliferative activity); conditions: read-out: IC 50 MDA-MB-468
Description: as §1, §2

[5] = system: breast cancer (MDA-MB-468 and MCF-7 cell lines) and melanoma cell lines (MalMe3, SkMe128); experiment: Cell cycle analysis by flow cytometry (propidium iodide); apoptosis as cells in sub G0/G1 (pre G0) peak; conditions: following treatment with IC70 concentration of compound
Description: Assessment of cell cycle analysis was performed using propidium iodide staining of cells and subsequent analysis on a Beckton Dickinson flow cytometer. […] The following day the medium was removed and replaced with 5 ml medium per flask containing the appropriate drug concentrations to be tested. 40 mg/ml stock drug solutions in DMSO were stores at −20° C. and on the day off drug treatment working solutions of 4 mg/ml were prepared in medium from which the final drug dilutions were prepared. Cells were maintained in an incubator (37° C., 5% CO2) for up to 96 h post treatment. After 24, 48, 72 or 96 h time points the medium from each flask was collected, stored on ice, and the remaining cells in the flasks were trypsinised by aiding 1 ml trypsin-EDTA solution to each flask. Cells were replaced into the incubator for 10 min to allow them to detach from the plastic plate. The cells in each flask were collected by adding the appropriate medium removed from each flask back to the corresponding flask and then placing medium containing both the attached and floating cells into a 15 ml tube. Cells were centrifuged at 4° C. for 5 min at 1500 rpm and the supernatant removed from each tube. The remaining cells were washed twice in ice cold PBS and then fixed in ice cold methanol overnight at −20° C. On the day of analysis of cells each tube was centrifuged at 4° C. for 5 min at 1500 rpm and the methanol removed and the cells washed twice in ice cold PBS. 20 μl propidium iodide solution (1 mg/ml) and 20 μl RNase A (10 mg/ml solution) were added to 1 ml PBS per tube and the cells were incubated for 30 min at 37° C. Cells were analysed on the flow cytometer and cell cycle changes were assessed.

[6] = Synergy with known cancer drugs measured using an MTT assay (FIGS. 9a-9c); conditions: ALM-54 at 0.5 μg
Source text: as §1, with “(DMSO). Absorbance readings can then be determined spectrophotometrically and a relationship established between control untreated cells and drug treated cells enabling the quantification of anti-proliferative changes as a result of drug treatment (Mosmann, 1983).” for “(DMSO).”
(§3) Wells containing medium only were used as blanks. Following the attachment period, cells were treated with appropriate drug concentrations (20 μl added per well). 40 mg/ml stock drug solutions, in DMSO, were stored at −20° C. and on the day of drug treatment working solutions of 4 mg/ml were prepared in medium which was further diluted to achieve final drug dilution volumes of 20 μl. Initial screening was determined over a concentration range of 1-200 μg/ml. For potent compounds the assay was repeated over a narrower concentration range to determine accurate IC50 values. Cells were exposed to drug for 96 h continual exposure (37° C., 5% CO2). Following the 96 h incubation, 50 μl MTT solution (1 g MTT/500 ml PBS) was added per well and the plates were further incubated for 4 h (37° C., 5% CO2). After incubation the MTT and medium was removed from the wells and 100 μl DMSO added per well. Plates were agitated on an orbital mixer platform (Stuart Scientific) for 10 minutes. Absorbance was measured at 570 nm on a Biotrak II (Amersham Bioscience) plate reader. IC50 values were calculated comparing control and drug treated cells.

[7] = system: PC3; experiment: MTT assay (anti-proliferative activity)
Source text: as §1, with “(DMSO). Absorbance readings can then be determined spectrophotometrically and a relationship established between control untreated cells and drug treated cells enabling the quantification of anti-proliferative changes as a result of drug treatment (Mosmann, 1983).” for “(DMSO).”
as §3

[8] = system: HT29; experiment: MTT assay (anti-proliferative activity)
Source text: as §1, with “(DMSO). Absorbance readings can then be determined spectrophotometrically and a relationship established between control untreated cells and drug treated cells enabling the quantification of anti-proliferative changes as a result of drug treatment (Mosmann, 1983).” for “(DMSO).”
as §3

[9] = system: H23; experiment: MTT assay (anti-proliferative activity)
Source text: as §1, with “(DMSO). Absorbance readings can then be determined spectrophotometrically and a relationship established between control untreated cells and drug treated cells enabling the quantification of anti-proliferative changes as a result of drug treatment (Mosmann, 1983).” for “(DMSO).”
as §3

[10] = system: ZR-75-1; experiment: MTT assay (anti-proliferative activity)
Source text: as §1, with “(DMSO). Absorbance readings can then be determined spectrophotometrically and a relationship established between control untreated cells and drug treated cells enabling the quantification of anti-proliferative changes as a result of drug treatment (Mosmann, 1983).” for “(DMSO).”
as §3

[11] = system: LNCAP; experiment: MTT assay (anti-proliferative activity)
Source text: as §1, with “(DMSO). Absorbance readings can then be determined spectrophotometrically and a relationship established between control untreated cells and drug treated cells enabling the quantification of anti-proliferative changes as a result of drug treatment (Mosmann, 1983).” for “(DMSO).”
as §3

[12] = system: HCT+/+; experiment: MTT assay (anti-proliferative activity)
Source text: as §1, with “(DMSO). Absorbance readings can then be determined spectrophotometrically and a relationship established between control untreated cells and drug treated cells enabling the quantification of anti-proliferative changes as a result of drug treatment (Mosmann, 1983).” for “(DMSO).”
as §3

[13] = system: HCT−/−; experiment: MTT assay (anti-proliferative activity)
Source text: as §1, with “(DMSO). Absorbance readings can then be determined spectrophotometrically and a relationship established between control untreated cells and drug treated cells enabling the quantification of anti-proliferative changes as a result of drug treatment (Mosmann, 1983).” for “(DMSO).”
as §3

[14] = system: RKO; experiment: MTT assay (anti-proliferative activity)
Source text: as §1, with “(DMSO). Absorbance readings can then be determined spectrophotometrically and a relationship established between control untreated cells and drug treated cells enabling the quantification of anti-proliferative changes as a result of drug treatment (Mosmann, 1983).” for “(DMSO).”
as §3

[15] = system: PNT2; experiment: MTT assay (anti-proliferative activity)
Source text: as §1, with “(DMSO). Absorbance readings can then be determined spectrophotometrically and a relationship established between control untreated cells and drug treated cells enabling the quantification of anti-proliferative changes as a result of drug treatment (Mosmann, 1983).” for “(DMSO).”
as §3

[16] = Homo sapiens, SK-MEL-28, 96 h continual exposure
[17] = Homo sapiens, MCF7, 96 h continual exposure
[18] = Homo sapiens, MDA-MB-468, 96 h continual exposure

Row | Compound | IC50 ([2]; 96 h continual exposure) | IC50 ([4]; 96 h continual exposure) | IC50 [2, 17] | IC50 [4, 18] | IC50 ([1]; 96 h continual exposure) | IC50 [3] | % Cells in Pre G0 phase of Cell Cycle [5] | IC50 [1, 16] | IC50 ([3]; Homo sapiens, Malme-3M) | further results
1 | CC1Cc2ccc(C(=O)NC(Cc3ccccc3)C(=O)OC(C)(C)C)c(O)c2C(=O)O1 (mixture of isomers) [ALM-53, L-Phenyl Alanine Tert-Butyl Ester Amide] | 9.4 µM | 2.3 µM |  |  | 70.5 µM | 11.7 µM | 8.9% |  |  | 
2 | CC1Cc2ccc(C(=O)NC(Cc3ccccc3)C(=O)O)c(O)c2C(=O)O1 (mixture of isomers) [ALM-54] | 16.2 µM | 10.8 µM |  |  | 46 µM | 13.5 µM | 12.8% |  |  | synergy with irinotecan ([6]; FIG. 9a): synergy; synergy with vinorelbine ([6]; FIG. 9b): synergy; synergy with cisplatin ([6]; FIG. 9c): synergy; IC50 [7]: 5.4 µM; IC50 [8]: 1.3 µM; IC50 [9]: 2 µM; IC50 [10]: 0.13 µM; IC50 [11]: 4.7 µM; IC50 [12]: 16.3 µM; IC50 [13]: 10.8 µM; IC50 [14]: 2.7 µM; IC50 [15]: 5.4 µM
3 | CC1Cc2ccc(I)c(O)c2C(=O)O1 (racemic) [ALM-25, Racemic Ortho-Iodomellein] |  |  | 72.3 µM | 72.3 µM |  |  | 37.0% | 78.9 µM | 75.6 µM | 
4 | CC1Cc2ccc(C(=O)Nc3ccccc3)c(O)c2C(=O)O1 (racemic) [ALM-45, Aniline Amide] | 26.9 µM | 10.1 µM |  |  | 172 µM | 33.6 µM | 6.4% |  |  | 
5 | CCCCCCCC/C=C\CCCCCCCCNC(=O)c1ccc2c(c1O)C(=O)OC(C)C2 (racemic) [ALM-52, Oleyl Amide] | 21.2 µM | 12.7 µM |  |  | 244 µM | 52.9 µM | 19.8% |  |  | 
6 | C[C@@H]1Cc2cccc(O)c2C(=O)O1 [ALM-11, (3R)-mellein] |  |  | 961 µM | 428 µM |  |  |  | 961 µM | > 960 µM | 
7 | COc1cccc2c1C(=O)O[C@@H](C)C2 [ALM-13, (3S)-methoxy mellein] |  |  | > 1040 µM | 1040 µM |  |  |  | > 1040 µM | 822 µM | 
8 | C[C@@H]1Cc2ccc(C(=O)N[C@@H](Cc3ccccc3)C(=O)O)c(O)c2C(=O)O1 [ALM-32, ochratoxin B] | 18.9 µM | 18.9 µM |  |  | 21.6 µM | 13.5 µM |  |  |  | 
9 | O=C(N[C@@H](Cc1ccccc1)C(=O)O)c1ccc2c(c1O)C(=O)OCC2 [ALM-70, L-Phenyl Alanine Amide of Compound ALM-68] | 8.4 µM | 1.4 µM |  |  | 42.2 µM | 18.3 µM | 32.7% |  |  | 
10 | CC1(C)Cc2ccc(C(=O)O)c(O)c2C(=O)O1 [ALM-72, 8-hydroxy-3,3-dimethyl-1-oxo-isochroman-7-carboxylic acid] |  |  | > 846 µM | > 846 µM |  |  |  | > 846 µM | > 846 µM | 
11 | CC(C)(C)OC(=O)[C@H](Cc1ccccc1)NC(=O)c1ccc2c(c1O)C(=O)OC(C)(C)C2 [ALM-73, L-Phenyl Alanine Tert-Butyl Ester Amide of Compound ALM-71] | 14.8 µM | 9.1 µM |  |  | 13.7 µM | 9.1 µM | 25.3% |  |  | 
12 | CC1Cc2ccc3c(c2C(=O)O1)OC(C)(C)OC3=O (stereo not shown) [ALM-75, Acetonide Compound] |  |  | > 762 µM | > 762 µM |  |  |  | > 762 µM | > 762 µM | 
13 | Racemic Mellein Oleyl Ester [ALM-17] | > 451 µM | > 451 µM |  |  | > 451 µM | > 451 µM |  |  |  | 

Further lines, with some results ahead:

Row | IC50 ([2]; 96 h continual exposure) | IC50 ([4]; 96 h continual exposure) | IC50 [2, 17] | IC50 [4, 18] | Compound | IC50 ([1]; 96 h continual exposure) | IC50 [3] | % Cells in Pre G0 phase of Cell Cycle [5] | IC50 [1, 16] | IC50 ([3]; Homo sapiens, Malme-3M) | further results
14 |  |  | 173 µM | 61.2 µM | CC1Cc2ccc(F)c(O)c2C(=O)O1 (racemic) [ALM-22, Racemic Ortho-Fluoromellein] |  |  | 16.5% | 96.8 µM | 96.8 µM | 
15 | 12.8 µM | 10.3 µM |  |  | CCCCCCCCCCCCNC(=O)c1ccc2c(c1O)C(=O)OC(C)C2 (racemic) [ALM-51, Dodecyl Amide] | 33.4 µM | 25.7 µM | 20.6% |  |  | 
16 |  |  | 596 µM | 317 µM | C[C@H]1Cc2cccc(O)c2C(=O)O1 [ALM-10, (3S)-mellein] |  |  |  | 961 µM | 360 µM | 
17 |  |  | 1040 µM | > 1040 µM | COc1cccc2c1C(=O)O[C@H](C)C2 [ALM-14, (3R)-methoxy mellein] |  |  |  | > 1040 µM | > 1040 µM | 
18 |  |  | 338 µM | 270 µM | COC(=O)c1ccc2c(c1O)C(=O)OCC2 [ALM-68, 8-hydroxy-1-oxo-isochroman-7-carboxylic acid methyl ester] |  |  |  | 562 µM | 518 µM | 
19 | 18.2 µM | 14.6 µM |  |  | CC(C)(C)OC(=O)[C@H](Cc1ccccc1)NC(=O)c1ccc2c(c1O)C(=O)OCC2 [ALM-69, L-Phenyl Alanine Tert-Butyl Ester Amide of Compound ALM-68] | 72.9 µM | 21.9 µM | 14.4% |  |  | 
20 |  |  | 400 µM | 336 µM | COC(=O)c1ccc2c(c1O)C(=O)OC(C)(C)C2 [ALM-71, 8-hydroxy-3,3-dimethyl-1-oxo-isochroman-7-carboxylic acid methyl ester] |  |  |  | > 799 µM | > 799 µM | 
21 | > 397 µM | > 397 µM |  |  | Racemic Kigelin Oleyl Ester [ALM-2] | > 397 µM | > 397 µM |  |  |  | 
